According to paper PMC8949533, “Aurasperone A Inhibits SARS CoV-2 In Vitro: An Integrated In Vitro and In Silico Study” (Marine Drugs, 2022):
Like-named read-outs stand apart in the source and are kept apart here.

Legend:
Assay type in all cases: cell-based
[1] = test system: SARS-CoV-2 virus (hCoV-19/Egypt/NRC-03/2020); test: microbe, parasite or virus in culture
MTT cytotoxicity assay = conditions: African green monkey
Description: (§1) To assess the half maximal cytotoxic concentration (CC50), stock solutions of the test compounds were prepared in 10% DMSO in ddH2O and diluted further to the working solutions with DMEM. The cytotoxic activity of the extracts was tested in Vero E6 cells by using the 3-(4,5-dimethylthiazol-2-yl)-2,5-diphenyltetrazolium bromide (MTT) method with minor modifications. Briefly, the cells were seeded in 96-well plates (100 µL/well at a density of 3 × 10^5 cells/mL) and incubated for 24 h at 37 °C in 5%CO2. After 24 h, cells were treated with various concentrations of the tested compounds in triplicates. 24 h later, the supernatant was discarded, and cell monolayers were washed with sterile 1x phosphate buffer saline (PBS) 3 times and MTT solution (20 µL of 5 mg/mL stock solution) was add to each well and incubated at 37 °C for 4 h followed by medium aspiration. In each well, the formed formazan crystals were dissolved with 200 µL of acidified isopropanol (0.04 M HCl in absolute isopropanol = 0.073 mL HCL in 50 mL isopropanol). Absorbance of formazan solutions was measured at λ max 540 nm with 620 nm as a reference wavelength using a multi-well plate reader. The percentage of cytotoxicity compared to the untreated cells was determined with the following equation.

Vero E6 cells = test: MTT cytotoxicity assay; conditions: Vero E6 cells, MTT, 24 h treatment
Description: as §1

[2] = Severe acute respiratory syndrome coronavirus 2, Vero C1008, 72 h, read-out: IC50 against SARS-CoV-2
[3] = Vero E6 cells, MTT, 24 h treatment, read-out: CC50
[4] = Vero E6 cells, MTT, 24 h treatment, read-out: CC50 (Figure 2)
[5] = Severe acute respiratory syndrome coronavirus 2, Vero C1008, 72 h, read-out: IC50 against SARS-CoV-2 (Figure 2)

Row | Structure (SMILES) | selectivity index (SI = CC50/IC50) [1] | IC50 [1, 2] [µM] | CC50 at 24 h (MTT cytotoxicity assay; [3]) [µM] | CC50 at 24 h (MTT cytotoxicity assay; [4]) [µM] | IC50 [1, 5] [µM] | further results
1 | COc1cc(OC)c2c(O)c3c(=O)cc(C)oc3c(-c3c(OC)cc4cc5oc(C)cc(=O)c5c(O)c4c3OC)c2c1 [Aurasperone A (3), aurasperone A] | 2641.5 | 12.2 | 32400 | 32400 |  | 
2 | COc1cc(OC)c2c(c1)cc(O)c1c(=O)cc(C)oc12 [Flavasperone (1), flavasperone] |  |  |  | 189 | 204 | 
3 | COc1cc(OC)c2c(O)c3c(=O)cc(C)oc3c(-c3c(OC)cc4cc(O)c5c(=O)cc(C)oc5c4c3OC)c2c1 [Fonsecinone A (4), fonsecinone A] | 4.7 | 61.1 |  | 288 | 61.6 | 
4 | COc1cc(OC)c2c(O)c3c(=O)cc(C)oc3c(-c3c(OC)cc(OC)c4c(O)c5c(=O)cc(C)oc5cc34)c2c1 [Rubasperone B (6), rubasperone B] |  |  |  |  |  | IC50 ([1]; Severe acute respiratory syndrome coronavirus 2, Vero C1008, Vero E6 cells infected with hCoV-19/Egypt/NRC-03/2020, 72 h, read-out: IC50 against SARS-CoV-2 (Figure 2)): 105 µM; CC50 at 24 h (MTT cytotoxicity assay): 181 µM
5 | CCC(CC)COC(=O)[C@H](C)N[P@](=O)(OC[C@H]1O[C@@](C#N)(c2ccc3c(N)ncnn23)[C@H](O)[C@@H]1O)Oc1ccccc1 [remdesivir, reference compound] |  |  | 415 |  |  | selectivity index (SI = CC50/IC50) ([1]; CC50 in Vero E6 cells / IC50 against SARS-CoV-2): 41.07; IC50 ([1]; Severe acute respiratory syndrome coronavirus 2, Vero C1008, Vero E6 cells infected with hCoV-19/Egypt/NRC-03/2020, 72 h, CPE reduction by 50%, read-out: IC50 against SARS-CoV-2): 10.1 µM; CC50 (Vero E6 cells): 415 µM
